Test results reported in ChEMBL document CHEMBL6103622 (J Med Chem, 2025).
Calls of active or inactive are those of the source. The rule behind the calls is not given here.

Experiments:
MC-38 = assay: Antitumor activity against mouse MC38 cells allografted in C57BL/6 mouse model assessed as upregulation of Nos2 mRNA expression in tumor at 10 to 20 mg/kg, ip administered once daily for 14 days by qPCR analysis; format: functional, organism-based; conditions: dose 10-20 mg/kg, time 14.0 day
[1] = AUC (0 to infinity) in Sprague-Dawley rat at 10 mg/kg, po; format: ADME, organism-based; conditions: in vivo
[2] = AUC (0 to infinity) in Sprague-Dawley rat at 1 mg/kg, iv; format: ADME, organism-based; conditions: in vivo
BMDM = assay: Induction of repolarization of M2 like macrophage into M1 phenotype in female C57BL/6 mouse BMDM cells assessed as increase in Tnf mRNA expression at 10 to 100 nM stimulated with mouse IL4/IL-13 for 24 hrs followed by compound addition and measured after 24 hrs by qPCR analysis; format: functional, cell-based; conditions: dose 10-100 nM

SMILES: Cc1nc(NC(=O)N[C@@H]2CCCC[C@H]2O)ccc1Oc1c[nH]c2ncc(Cl)cc12
- Activity (MC-38): Active
- AUC(0-inf) [1]: 4170 ng·h/mL
- AUC(0-inf) [2]: 527 ng·h/mL
- Activity (BMDM): Active
